Reference: ChEMBL document CHEMBL4507268 (2021)

Key:
Conditions in all cases: Compound concentration 1.0 uM
[1] = biological target: Homeodomain-interacting protein kinase 2 (Homo sapiens) (UniProt Q9H2X6)
[2] = biological target: Serine/threonine-protein kinase PAK 3 (Homo sapiens) (UniProt O75914)
[3] = biological target: ALK tyrosine kinase receptor (Homo sapiens) (UniProt Q9UM73)
Homo sapiens = species: Homo sapiens
[4] = biological target: Cyclin-dependent kinase 14/Cyclin-Y (Homo sapiens) (UniProt O94921+Q8ND76)
[5] = biological target: [Pyruvate dehydrogenase (acetyl-transferring)] kinase isozyme 1, mitochondrial (Homo sapiens) (UniProt Q15118)
[6] = biological target: T1, Rhodopsin kinase GRK1 (Homo sapiens) (UniProt Q15835)
T1 sequence (whole entry): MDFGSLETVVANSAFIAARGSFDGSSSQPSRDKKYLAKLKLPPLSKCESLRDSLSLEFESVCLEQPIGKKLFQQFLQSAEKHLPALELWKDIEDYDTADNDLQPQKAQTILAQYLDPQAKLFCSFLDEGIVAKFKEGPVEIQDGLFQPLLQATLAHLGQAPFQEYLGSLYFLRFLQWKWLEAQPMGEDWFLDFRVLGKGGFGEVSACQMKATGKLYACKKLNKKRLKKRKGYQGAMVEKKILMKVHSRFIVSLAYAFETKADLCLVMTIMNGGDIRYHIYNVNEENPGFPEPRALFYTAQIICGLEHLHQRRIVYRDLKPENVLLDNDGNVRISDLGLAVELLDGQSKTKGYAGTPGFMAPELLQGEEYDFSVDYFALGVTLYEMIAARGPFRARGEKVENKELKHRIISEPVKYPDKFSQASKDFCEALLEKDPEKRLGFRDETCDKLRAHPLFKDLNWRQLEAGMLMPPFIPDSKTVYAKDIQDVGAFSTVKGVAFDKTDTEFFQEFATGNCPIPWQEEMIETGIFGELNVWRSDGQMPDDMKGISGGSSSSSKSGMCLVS

[7] = biological target: Mitogen-activated protein kinase 9 (Homo sapiens) (UniProt P45984)
[8] = biological target: Eukaryotic translation initiation factor 2-alpha kinase 3 (Homo sapiens) (UniProt Q9NZJ5)
[9] = biological target: Mitogen-activated protein kinase kinase kinase 10 (Homo sapiens) (UniProt Q02779)
[10] = biological target: Serine/threonine-protein kinase VRK1 (Homo sapiens) (UniProt Q99986)
[11] = biological target: Insulin receptor (Homo sapiens) (UniProt P06213)
[12] = biological target: Serine/threonine-protein kinase MRCK beta (Homo sapiens) (UniProt Q9Y5S2)
[13] = biological target: CDK7/Cyclin H/MNAT1 (Homo sapiens) (UniProt P51946+P50613+P51948)
[14] = biological target: T2, Phosphorylase b kinase regulatory subunit alpha, liver isoform (Homo sapiens) (UniProt P46019)
T2 sequence (whole entry): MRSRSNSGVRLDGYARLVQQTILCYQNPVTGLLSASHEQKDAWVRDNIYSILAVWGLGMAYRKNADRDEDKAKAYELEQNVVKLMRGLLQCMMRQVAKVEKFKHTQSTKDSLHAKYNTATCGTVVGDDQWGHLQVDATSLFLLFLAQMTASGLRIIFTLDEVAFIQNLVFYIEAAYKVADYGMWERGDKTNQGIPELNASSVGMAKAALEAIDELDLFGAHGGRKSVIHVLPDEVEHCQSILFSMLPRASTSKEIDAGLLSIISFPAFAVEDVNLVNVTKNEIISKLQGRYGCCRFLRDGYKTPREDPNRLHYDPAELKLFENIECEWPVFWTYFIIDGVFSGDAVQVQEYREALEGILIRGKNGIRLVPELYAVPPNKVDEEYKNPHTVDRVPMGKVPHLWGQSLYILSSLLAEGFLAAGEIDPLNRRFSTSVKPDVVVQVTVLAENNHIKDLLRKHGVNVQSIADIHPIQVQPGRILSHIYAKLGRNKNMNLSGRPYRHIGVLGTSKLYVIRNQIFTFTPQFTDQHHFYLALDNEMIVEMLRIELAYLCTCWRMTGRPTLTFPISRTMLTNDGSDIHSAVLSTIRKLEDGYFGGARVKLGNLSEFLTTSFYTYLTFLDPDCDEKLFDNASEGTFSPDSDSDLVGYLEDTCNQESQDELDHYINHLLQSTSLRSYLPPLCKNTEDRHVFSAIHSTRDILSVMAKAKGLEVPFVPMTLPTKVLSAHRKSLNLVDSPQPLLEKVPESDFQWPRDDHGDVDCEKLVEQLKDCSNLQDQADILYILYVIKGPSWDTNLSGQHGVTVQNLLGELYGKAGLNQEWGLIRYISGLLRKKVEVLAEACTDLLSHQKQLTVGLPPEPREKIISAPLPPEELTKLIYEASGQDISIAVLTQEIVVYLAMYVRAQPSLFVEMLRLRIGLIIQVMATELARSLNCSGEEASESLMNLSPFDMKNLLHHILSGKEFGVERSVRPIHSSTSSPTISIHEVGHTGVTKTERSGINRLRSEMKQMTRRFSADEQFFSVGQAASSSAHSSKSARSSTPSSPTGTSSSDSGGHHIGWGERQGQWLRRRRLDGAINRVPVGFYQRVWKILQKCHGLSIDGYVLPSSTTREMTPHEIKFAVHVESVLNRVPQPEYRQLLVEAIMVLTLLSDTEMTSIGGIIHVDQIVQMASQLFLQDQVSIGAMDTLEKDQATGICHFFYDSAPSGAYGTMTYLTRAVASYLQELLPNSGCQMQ

[15] = biological target: SRSF protein kinase 1 (Homo sapiens) (UniProt Q96SB4)

Measured: % residual kinase activity

Sequence of Mitogen-activated protein kinase kinase kinase 10 (Homo sapiens) (Q02779 whole entry, looked up): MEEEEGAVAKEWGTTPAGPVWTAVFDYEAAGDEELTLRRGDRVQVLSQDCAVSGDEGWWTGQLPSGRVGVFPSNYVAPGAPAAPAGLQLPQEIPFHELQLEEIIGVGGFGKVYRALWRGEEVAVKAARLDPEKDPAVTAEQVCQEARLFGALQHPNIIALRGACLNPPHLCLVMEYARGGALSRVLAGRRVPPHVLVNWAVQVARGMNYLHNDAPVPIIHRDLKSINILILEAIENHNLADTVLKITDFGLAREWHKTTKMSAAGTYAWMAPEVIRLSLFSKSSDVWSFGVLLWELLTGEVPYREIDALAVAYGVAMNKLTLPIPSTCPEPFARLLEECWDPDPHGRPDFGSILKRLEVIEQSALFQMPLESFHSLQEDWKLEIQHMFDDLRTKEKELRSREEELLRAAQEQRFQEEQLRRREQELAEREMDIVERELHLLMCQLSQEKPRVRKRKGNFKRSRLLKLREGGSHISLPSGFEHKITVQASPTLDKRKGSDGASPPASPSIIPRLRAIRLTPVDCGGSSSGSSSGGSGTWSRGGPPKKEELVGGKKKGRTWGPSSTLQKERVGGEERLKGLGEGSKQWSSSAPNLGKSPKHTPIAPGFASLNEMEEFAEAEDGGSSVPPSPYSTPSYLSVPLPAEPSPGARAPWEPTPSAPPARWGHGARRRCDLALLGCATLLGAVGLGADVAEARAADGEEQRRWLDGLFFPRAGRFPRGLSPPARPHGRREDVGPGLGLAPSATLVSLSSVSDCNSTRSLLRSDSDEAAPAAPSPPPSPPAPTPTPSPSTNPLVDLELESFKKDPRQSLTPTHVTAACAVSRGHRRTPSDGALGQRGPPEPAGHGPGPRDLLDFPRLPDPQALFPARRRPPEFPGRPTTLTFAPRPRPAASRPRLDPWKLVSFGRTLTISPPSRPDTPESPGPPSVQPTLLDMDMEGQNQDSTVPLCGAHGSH
Sequence of SRSF protein kinase 1 (Homo sapiens) (Q96SB4 whole entry): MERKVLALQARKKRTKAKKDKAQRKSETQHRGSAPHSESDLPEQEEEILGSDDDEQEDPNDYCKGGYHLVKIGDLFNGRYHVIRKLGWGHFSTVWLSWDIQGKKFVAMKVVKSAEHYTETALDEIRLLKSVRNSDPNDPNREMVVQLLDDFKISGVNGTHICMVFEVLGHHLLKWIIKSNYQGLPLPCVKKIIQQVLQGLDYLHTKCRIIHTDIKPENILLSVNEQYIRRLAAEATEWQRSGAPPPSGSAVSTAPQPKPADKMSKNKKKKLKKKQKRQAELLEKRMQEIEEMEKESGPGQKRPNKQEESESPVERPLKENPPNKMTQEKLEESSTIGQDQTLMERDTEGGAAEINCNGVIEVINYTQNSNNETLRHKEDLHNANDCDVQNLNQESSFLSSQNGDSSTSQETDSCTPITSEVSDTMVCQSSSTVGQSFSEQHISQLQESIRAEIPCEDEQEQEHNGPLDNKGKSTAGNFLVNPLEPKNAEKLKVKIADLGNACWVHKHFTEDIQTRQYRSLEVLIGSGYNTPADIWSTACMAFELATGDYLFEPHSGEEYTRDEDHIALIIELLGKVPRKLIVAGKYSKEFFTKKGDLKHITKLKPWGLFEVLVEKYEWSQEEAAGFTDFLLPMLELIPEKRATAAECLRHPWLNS
Sequence of Serine/threonine-protein kinase PAK 3 (Homo sapiens) (O75914 whole entry, looked up): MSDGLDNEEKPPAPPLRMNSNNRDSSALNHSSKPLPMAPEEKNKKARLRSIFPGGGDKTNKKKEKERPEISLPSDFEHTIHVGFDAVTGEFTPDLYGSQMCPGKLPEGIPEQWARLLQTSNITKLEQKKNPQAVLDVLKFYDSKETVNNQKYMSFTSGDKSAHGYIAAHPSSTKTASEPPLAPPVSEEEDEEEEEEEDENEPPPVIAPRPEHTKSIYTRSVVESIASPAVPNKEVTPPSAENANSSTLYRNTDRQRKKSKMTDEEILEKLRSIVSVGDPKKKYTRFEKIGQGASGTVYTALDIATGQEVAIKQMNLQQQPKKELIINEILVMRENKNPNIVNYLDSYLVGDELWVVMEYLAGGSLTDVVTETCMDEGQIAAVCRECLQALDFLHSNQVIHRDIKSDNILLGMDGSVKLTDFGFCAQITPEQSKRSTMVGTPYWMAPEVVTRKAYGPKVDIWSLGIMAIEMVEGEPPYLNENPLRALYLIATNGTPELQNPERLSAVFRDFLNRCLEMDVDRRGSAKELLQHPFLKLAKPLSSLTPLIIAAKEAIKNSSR
Sequence of Mitogen-activated protein kinase 9 (Homo sapiens) (P45984 whole entry, looked up): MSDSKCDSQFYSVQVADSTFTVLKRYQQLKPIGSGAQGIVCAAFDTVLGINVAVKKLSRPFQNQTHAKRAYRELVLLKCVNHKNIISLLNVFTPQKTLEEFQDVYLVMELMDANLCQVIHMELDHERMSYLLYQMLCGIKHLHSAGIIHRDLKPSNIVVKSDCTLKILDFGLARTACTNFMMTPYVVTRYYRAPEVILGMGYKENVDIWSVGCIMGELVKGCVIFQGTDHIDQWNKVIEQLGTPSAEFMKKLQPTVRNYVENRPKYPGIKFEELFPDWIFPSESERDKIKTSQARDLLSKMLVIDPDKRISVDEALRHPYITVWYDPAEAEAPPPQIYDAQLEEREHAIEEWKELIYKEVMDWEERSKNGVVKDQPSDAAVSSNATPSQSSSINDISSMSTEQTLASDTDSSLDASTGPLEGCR
Sequence of Homeodomain-interacting protein kinase 2 (Homo sapiens) (Q9H2X6 whole entry, looked up): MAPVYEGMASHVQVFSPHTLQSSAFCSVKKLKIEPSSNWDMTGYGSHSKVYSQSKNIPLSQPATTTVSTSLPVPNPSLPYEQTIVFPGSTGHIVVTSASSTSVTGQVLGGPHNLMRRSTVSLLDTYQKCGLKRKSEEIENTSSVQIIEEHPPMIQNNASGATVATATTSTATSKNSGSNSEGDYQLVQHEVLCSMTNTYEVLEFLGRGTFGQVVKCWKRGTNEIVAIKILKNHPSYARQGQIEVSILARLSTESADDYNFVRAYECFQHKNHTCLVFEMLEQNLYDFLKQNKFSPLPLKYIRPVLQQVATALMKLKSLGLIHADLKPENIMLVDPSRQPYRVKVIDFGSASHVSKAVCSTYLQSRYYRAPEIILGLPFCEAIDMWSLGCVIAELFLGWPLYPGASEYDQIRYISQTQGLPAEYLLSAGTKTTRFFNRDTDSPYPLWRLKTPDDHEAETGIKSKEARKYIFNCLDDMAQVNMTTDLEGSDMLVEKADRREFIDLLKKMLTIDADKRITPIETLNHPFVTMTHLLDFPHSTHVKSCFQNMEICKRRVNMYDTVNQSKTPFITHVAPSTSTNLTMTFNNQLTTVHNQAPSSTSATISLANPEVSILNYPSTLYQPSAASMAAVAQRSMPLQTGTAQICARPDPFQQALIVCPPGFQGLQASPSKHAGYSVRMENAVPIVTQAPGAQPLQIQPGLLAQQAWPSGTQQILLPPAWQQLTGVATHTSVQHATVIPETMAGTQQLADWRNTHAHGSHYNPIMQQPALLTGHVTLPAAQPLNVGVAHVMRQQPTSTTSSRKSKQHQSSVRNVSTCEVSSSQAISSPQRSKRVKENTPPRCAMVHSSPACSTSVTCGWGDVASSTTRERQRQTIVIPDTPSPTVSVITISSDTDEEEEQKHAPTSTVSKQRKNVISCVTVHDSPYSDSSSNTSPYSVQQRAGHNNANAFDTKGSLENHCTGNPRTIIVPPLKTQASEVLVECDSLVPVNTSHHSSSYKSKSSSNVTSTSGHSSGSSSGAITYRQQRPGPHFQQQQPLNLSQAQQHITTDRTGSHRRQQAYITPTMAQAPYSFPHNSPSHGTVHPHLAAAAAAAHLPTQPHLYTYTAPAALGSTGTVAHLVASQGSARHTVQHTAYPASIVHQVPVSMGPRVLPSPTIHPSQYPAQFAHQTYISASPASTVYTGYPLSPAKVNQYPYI
Sequence of Serine/threonine-protein kinase VRK1 (Homo sapiens) (Q99986 whole entry): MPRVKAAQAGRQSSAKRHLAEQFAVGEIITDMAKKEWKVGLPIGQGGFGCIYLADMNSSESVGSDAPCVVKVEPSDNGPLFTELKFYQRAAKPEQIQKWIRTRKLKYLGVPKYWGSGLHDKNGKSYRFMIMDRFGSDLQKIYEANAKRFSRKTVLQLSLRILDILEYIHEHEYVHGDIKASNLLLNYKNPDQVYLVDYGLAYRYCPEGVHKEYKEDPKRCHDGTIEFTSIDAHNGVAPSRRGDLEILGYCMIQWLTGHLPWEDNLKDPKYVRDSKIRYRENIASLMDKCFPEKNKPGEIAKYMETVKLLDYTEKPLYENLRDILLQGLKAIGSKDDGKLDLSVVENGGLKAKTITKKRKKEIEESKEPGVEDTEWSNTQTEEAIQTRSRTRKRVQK

CN1CCN(c2cnc3c(C4CCN(C(=O)c5ccc(OC(F)(F)F)cc5N)CC4)ncnc3c2)CC1 [BAY-885]
inactive: [1] 107% | [2] 106% | [3] 121% | Homo sapiens 112% | [4] 117% | [5] 89% | [6] 117% | [7] 104% | [8] 100% | [9] 107% | [10] 100% | [11] 107% | [12] 110% | [13] 99% | [14] 112% | [15] 114%
